In test [1] the target is Casein kinase I isoform alpha (Homo sapiens, UniProt P48729). The experiment in a line: Selectivity interaction (KinomeScan (DiscoverX)) EUB0001079a CSNK1A1. To be noted: at 1 µM.
For test [2], the target named is T1, Histone-lysine N-methyltransferase EHMT2 (Homo sapiens) (UniProt Q96KQ7).
T1 sequence (whole entry): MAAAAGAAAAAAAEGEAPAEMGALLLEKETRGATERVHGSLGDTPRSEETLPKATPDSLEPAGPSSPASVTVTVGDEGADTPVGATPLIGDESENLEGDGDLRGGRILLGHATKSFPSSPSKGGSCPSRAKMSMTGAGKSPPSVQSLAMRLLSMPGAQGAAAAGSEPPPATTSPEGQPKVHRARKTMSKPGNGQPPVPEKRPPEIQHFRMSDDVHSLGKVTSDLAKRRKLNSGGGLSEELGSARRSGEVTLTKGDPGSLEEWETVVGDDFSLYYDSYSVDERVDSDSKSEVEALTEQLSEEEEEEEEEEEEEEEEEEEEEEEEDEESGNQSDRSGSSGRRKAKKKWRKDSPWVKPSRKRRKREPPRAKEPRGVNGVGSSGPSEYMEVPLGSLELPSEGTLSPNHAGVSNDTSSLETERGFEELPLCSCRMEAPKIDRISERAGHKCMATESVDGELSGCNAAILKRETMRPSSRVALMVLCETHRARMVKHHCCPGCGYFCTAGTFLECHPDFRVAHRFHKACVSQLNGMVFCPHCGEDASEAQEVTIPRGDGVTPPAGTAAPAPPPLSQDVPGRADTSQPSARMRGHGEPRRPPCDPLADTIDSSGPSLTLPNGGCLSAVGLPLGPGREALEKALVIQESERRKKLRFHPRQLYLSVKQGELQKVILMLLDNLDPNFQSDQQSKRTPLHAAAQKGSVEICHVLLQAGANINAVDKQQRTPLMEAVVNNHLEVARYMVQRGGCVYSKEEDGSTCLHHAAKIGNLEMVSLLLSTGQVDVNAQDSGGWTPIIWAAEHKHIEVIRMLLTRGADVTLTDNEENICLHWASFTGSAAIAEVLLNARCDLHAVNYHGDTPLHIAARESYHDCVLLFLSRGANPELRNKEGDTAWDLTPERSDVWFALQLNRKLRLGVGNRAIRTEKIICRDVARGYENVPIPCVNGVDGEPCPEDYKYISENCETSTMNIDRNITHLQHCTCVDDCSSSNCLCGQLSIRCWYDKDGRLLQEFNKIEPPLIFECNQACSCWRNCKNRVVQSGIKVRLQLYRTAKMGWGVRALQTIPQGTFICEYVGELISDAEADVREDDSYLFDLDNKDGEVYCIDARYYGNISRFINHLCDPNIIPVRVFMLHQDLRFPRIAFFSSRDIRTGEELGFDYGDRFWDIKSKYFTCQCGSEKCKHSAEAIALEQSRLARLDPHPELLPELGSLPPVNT
The experiment in a line: Selectivity interaction (Methyltransferase screen (Scintillation proximity assays)) EUB0000255b EHMT2. A general note: In a scintillation proximity assay essentially only radioactivity close to the scintillant gives light.

The target of test [3] is Myosin light chain kinase, smooth muscle (Homo sapiens, UniProt Q15746). The experiment in a line: Selectivity interaction (KinomeScan (DiscoverX)) EUB0000666a MYLK. To be noted: at 10 µM.
Sequence of Myosin light chain kinase, smooth muscle (Q15746 whole entry): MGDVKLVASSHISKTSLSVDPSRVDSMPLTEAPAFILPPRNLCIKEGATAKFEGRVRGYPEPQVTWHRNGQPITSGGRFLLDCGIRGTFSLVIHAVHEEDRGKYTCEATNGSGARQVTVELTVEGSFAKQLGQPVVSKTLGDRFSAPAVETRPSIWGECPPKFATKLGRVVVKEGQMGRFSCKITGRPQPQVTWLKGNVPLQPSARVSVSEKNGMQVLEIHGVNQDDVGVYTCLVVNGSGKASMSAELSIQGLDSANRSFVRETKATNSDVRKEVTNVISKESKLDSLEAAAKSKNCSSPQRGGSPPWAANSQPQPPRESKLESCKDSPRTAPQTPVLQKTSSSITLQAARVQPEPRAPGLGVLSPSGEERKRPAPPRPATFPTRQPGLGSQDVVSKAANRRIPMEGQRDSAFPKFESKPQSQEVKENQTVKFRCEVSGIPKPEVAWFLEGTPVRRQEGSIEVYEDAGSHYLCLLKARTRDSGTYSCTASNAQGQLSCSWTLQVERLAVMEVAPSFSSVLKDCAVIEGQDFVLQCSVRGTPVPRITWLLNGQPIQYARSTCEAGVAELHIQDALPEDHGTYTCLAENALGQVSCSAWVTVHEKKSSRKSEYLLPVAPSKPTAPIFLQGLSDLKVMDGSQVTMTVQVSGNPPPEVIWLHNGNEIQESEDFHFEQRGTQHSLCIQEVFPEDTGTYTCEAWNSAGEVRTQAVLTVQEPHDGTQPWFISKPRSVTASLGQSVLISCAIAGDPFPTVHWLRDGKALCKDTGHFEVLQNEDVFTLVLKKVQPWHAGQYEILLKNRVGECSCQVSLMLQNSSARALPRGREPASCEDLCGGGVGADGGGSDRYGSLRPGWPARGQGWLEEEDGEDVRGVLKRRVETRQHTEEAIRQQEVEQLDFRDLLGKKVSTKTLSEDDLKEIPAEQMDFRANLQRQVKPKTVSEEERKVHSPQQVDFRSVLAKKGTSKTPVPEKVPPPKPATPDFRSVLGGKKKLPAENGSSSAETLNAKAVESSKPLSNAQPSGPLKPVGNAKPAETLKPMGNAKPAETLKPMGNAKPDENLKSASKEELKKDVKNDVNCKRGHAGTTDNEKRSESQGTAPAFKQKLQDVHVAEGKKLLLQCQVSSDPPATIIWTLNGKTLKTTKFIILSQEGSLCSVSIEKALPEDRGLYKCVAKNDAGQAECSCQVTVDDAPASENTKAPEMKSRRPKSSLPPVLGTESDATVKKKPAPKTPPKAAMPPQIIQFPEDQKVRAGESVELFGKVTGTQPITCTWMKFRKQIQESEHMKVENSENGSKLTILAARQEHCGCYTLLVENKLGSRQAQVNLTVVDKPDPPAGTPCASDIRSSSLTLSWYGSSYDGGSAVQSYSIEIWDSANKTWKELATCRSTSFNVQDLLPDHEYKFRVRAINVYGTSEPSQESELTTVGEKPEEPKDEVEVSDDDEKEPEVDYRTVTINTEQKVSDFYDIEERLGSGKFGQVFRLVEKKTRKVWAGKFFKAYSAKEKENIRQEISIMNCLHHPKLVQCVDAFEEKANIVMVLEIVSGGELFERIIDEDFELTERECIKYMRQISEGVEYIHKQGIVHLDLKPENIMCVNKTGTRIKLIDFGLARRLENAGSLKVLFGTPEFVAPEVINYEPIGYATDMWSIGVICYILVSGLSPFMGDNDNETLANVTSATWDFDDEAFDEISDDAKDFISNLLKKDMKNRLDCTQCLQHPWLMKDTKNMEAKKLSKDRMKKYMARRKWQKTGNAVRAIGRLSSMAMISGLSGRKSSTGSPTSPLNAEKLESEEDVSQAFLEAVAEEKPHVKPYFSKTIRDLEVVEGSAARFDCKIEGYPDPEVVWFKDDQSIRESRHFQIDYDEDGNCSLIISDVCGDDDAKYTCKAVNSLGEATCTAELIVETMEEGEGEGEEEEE
In test [4] the target is T2, Ephrin type-B receptor 2 (Homo sapiens) (UniProt P29323).
T2 sequence (whole entry): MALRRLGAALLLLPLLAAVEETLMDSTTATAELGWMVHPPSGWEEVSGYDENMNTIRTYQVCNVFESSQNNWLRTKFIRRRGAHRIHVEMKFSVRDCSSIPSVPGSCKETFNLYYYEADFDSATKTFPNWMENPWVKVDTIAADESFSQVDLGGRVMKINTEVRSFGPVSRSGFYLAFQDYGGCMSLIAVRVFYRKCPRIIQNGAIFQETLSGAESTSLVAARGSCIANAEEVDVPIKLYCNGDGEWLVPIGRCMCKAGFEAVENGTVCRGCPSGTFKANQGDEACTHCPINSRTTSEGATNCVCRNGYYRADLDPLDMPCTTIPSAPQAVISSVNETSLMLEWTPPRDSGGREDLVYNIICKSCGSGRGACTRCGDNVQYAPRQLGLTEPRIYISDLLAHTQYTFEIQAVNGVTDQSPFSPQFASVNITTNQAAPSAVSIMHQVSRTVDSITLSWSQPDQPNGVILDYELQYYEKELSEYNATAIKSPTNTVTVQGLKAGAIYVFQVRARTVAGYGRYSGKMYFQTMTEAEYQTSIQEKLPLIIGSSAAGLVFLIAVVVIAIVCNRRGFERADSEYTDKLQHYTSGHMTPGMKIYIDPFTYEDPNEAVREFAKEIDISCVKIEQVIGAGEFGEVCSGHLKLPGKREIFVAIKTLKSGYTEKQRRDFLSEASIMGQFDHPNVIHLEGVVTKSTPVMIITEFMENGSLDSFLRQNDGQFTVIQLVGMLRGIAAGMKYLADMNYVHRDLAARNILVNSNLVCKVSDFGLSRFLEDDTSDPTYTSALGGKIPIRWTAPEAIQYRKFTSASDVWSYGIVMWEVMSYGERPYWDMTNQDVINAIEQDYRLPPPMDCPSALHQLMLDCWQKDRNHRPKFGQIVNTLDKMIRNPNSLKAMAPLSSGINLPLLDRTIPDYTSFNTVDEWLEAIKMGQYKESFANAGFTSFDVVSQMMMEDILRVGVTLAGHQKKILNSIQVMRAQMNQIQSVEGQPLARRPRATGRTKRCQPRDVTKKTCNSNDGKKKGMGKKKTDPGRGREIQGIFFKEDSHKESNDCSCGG
Put plainly: Selectivity interaction (Kinase panel (Z-LYTE Assay)) EUB0001632a EPHB2. To be noted: at 10 µM.

The target in test [5] is SRSF protein kinase 3 (Homo sapiens) (UniProt Q9UPE1). Put plainly: Selectivity interaction (KinomeScan (DiscoverX)) EUB0000229b SRPK3. To be noted: at 10 µM.
Sequence of SRSF protein kinase 3 (Homo sapiens) (Q9UPE1 whole entry): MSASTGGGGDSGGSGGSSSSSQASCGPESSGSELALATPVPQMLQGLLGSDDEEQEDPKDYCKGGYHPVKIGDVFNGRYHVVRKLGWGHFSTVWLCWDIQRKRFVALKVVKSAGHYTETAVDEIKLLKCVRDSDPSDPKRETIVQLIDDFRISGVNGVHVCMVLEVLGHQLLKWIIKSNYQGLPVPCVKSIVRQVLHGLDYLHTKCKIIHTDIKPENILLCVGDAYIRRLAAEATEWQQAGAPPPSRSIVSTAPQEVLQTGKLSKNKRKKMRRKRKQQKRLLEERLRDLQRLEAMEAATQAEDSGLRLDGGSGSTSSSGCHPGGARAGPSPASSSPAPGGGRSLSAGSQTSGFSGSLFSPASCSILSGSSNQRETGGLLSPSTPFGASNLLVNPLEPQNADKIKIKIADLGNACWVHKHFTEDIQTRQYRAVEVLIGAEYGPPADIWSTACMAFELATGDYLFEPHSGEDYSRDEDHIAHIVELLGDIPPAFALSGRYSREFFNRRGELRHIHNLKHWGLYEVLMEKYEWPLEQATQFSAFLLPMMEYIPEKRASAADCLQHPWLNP
Test [6] has as its target T3, Dual specificity mitogen-activated protein kinase kinase 7 (Homo sapiens) (UniProt O14733).
T3 sequence (whole entry): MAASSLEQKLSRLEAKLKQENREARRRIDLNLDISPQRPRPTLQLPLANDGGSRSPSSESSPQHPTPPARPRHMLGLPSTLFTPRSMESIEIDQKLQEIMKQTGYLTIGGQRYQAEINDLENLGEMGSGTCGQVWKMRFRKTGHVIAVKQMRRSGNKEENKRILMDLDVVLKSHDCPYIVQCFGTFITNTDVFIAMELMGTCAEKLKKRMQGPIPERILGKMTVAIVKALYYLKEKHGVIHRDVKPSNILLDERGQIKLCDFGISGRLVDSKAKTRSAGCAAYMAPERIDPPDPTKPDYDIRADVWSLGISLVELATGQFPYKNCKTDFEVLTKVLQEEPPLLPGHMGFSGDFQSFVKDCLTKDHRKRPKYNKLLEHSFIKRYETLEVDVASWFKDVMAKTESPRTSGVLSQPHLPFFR
Put plainly: Selectivity interaction (Kinase panel (KiNativ target engagement assay in Jurkat cells)) EUB0001635a MAP2K7. Format: cell-based. To be noted: Selectivity number of off-targets 0.0, Selectivity number of targets 233.0, Source Knowledge https://www.sciencedirect.com/science/article/pii/S2451945619300674?via%3Dihub, at 1 µM.

Bounds are passed on as bounds.

Sequence of Casein kinase I isoform alpha (P48729 2-337 limits assumed): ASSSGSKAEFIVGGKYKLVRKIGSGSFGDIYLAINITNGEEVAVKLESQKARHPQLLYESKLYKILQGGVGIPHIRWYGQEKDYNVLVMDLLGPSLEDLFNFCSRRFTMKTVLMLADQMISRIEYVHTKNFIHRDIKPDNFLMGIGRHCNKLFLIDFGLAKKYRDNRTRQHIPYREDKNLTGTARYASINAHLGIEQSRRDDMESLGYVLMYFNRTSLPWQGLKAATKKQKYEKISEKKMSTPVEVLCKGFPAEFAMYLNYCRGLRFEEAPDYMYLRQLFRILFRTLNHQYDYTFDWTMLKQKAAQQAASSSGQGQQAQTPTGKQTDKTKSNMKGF

The compound `Nc1cnc(N2CCc3cc(S(=O)(=O)Nc4c(F)cc(Cl)cc4F)cc(N4CCCC4=O)c32)nc1` [TP-020n] registered a % of control in test [1] of 100%.
On to `COCCN1CCC(c2cc(CN(C)C(=O)c3cccc(Oc4ccccc4)c3)ccn2)CC1`, for which the results for the % activity in test [2] (at 1 µM) and in test [2] (at 10 µM) were more than 95% and more than 90%, respectively.
As for `O=C(NOC[C@H](O)CO)c1ccc(F)c(F)c1Nc1ccc(I)cc1F`, the % of control in test [3] came to 100%.
Consider `Cn1cc(-n2cnc3c(NCc4nc5cc(Cl)c(Cl)cc5[nH]4)nc(N4CCOCC4)nc32)cn1`, for which the % of control in test [4] amounted to 1.86%.
Compound `COc1cc(N(C)c2ccnc3ccc(C(F)(F)F)cc23)cc(OC)c1OC` showed a % binding in test [5] of 86%.
The compound `C=CC(=O)Nc1ccc(C(=O)Nc2[nH]nc3c2CN(C(=O)N[C@H](CN(C)C)c2ccccc2)C3(C)C)cc1` gave a % of engagement in test [6] of 22.4%.
